According to US6951647B2, “T cell binding ligand peptides and method of inducing a cellular immune response” (Cel-Sci Corporation, priority 2001, dated 2005):
Several values for one entry are separate records, joined by “and”; a condition that tells them apart may be missing. Equal entries are not always repeated. Marks after values point to notes of the source that are not given here.

How the values were obtained:
[1] = system: modified HGP-30 (mH, SEQ ID NO:6); assay: Isotype analysis (ELISA) of anti-mH antibody in sera of immunized mice; format: in vivo; parameters: IgG1 / IgG2a / IgG2b / IgG3: unit not given here; settings: ELISA signal, day 42 test bleeding
Protocol: (§1) Mice in groups (5-10 animals per group as designated) are immunized with the LEAPS constructs (25 μg/dose) of SEQ ID NO's:37, 38 and 39, in 0.2 mL emulsified 1:1 with adjuvant (Seppic's ISA-51 or Corixa's microfluidized MPL S/E) on days 0 and 14. Mice are evaluated by Delayed Type of Hypersensitivity (DTH) by inoculation on day 26 with 20 μl of a solution of saline or mH (SEQ ID NO:6) (25 μg in saline) in the left or right ear respectively. The DTH response is determined by measurement of the ear thickness 48 hours later and expressed as increase in ear thickness (mm) of experimental ear compared to that of the control ear. Individual animal sera are collected for measurement of antibody on day 28, 42, 63 and 77. Sera from individual animals and group pools are evaluated for specific anti-mH antibody, for total antibody, IgG1, IgG2a and IgG3 antibody isotype and cross clade titer at selected time points as indicated.
The results of an isotype analysis of day 42 test bleedings with G′-mH (SEQ ID NO:37), G-mH (SEQ ID NO:38), J-mH (SEQ ID NO:39), F-mH (SEQ ID NO:40) and F-HGP-30 (SEQ ID NO:41), are shown in Table 1.
An isotype analysis for pools of day 28 test bleedings G-mH, G′-mH and m-HGP-30/KLH using either MPL S/E or ISA51 as adjuvant, are shown in Table 3.

E Clade = assay: ELISA cross clade recognition by sera of immunized mice, E Clade; format: in vivo; settings: day 63 test bleeding, sera 1:200, individual mouse
Protocol: as §1
(§2) The mouse sera for the ELISA was used at a dilution of 1:200. Again, clearly, the construct provides higher signals indicative of higher levels of the antibodies that recognized other clades besides the parental one (Clade B) of mH.
(§3) A cross clade analysis for pools of day 42 test bleedings from the same groups as used in Table 3, were obtained and the results are shown in Table 4.

modified HGP-30 [2] = assay: Delayed Type Hypersensitivity (DTH) ear thickness response with antisera depletion of CD4 or CD8 cells; format: in vivo, Mice
Protocol: as §1
Select immunoglobulin preparations were obtained from Dr. Stephen Hoffmann, Malaria Program, U.S. Navy. […] This allows one to determine some parts of the nature of various cellular (e.g., T-cell) involvement in the early stage of immune system response with the LEAPS peptide-constructs. It is recognized, however, that this is only a temporary event since new cells are continuously being developed from stem cells and the animals become resistant to the reagents.
The animals are pretreated with the antisera as indicated for 5 days before the initial immunization with peptide-construct having SEQ ID NO:37 or SEQ ID NO:39 on […]. No pretreatment is done before the booster immunization on day 14 or DTH on day 26-28. The mice are then inoculated with the test antigen or saline (control) on day 26 in the left and right ears, respectively, and the DTH response is measured on day 28. The difference between the values for the test and saline control ears is calculated for each group of five animals along with the standard error of the mean (sem) and the results are plotted (see FIG. 1). Also shown in FIG. 1 are values for the untreated animals and animals immunized on day 14 only.
The DTH (Delayed Type Hypersensitivity) data is statistically significant with a t-test of 0.05 for SEQ ID NO:39 and anti-CD8. The DTH for pretreatment of SEQ ID NO:37 immunized mice with anti-CD4 was just above the cutoff limit for statistical significance due to a weaker DTH response and small group size.

D Clade = assay: ELISA cross clade recognition by sera of immunized mice, D Clade; format: in vivo; settings: day 63 test bleeding, sera 1:200, individual mouse
Protocol: as §1, §2, §3

B Clade = assay: ELISA cross clade recognition by sera of immunized mice, B Clade; format: in vivo; settings: day 63 test bleeding, sera 1:200, individual mouse
Protocol: as §1, §2, §3

modified HGP-30 [3] = assay: ELISA antibody screening of sera of immunized mice on modified HGP-30; format: in vivo; settings: day 63 test bleeding, sera 1:200, individual mouse
Protocol: as §1, with “indicated. […]” for “indicated.”

C Clade = assay: ELISA cross clade recognition by sera of immunized mice, C Clade; format: in vivo; settings: day 63 test bleeding, sera 1:200, individual mouse
Protocol: as §1, §2, §3

[4] = Day 14 Injection Only (immunized with construct on day 14 only), average of group of 5 mice
[5] = Treatment Anti CD4, daily for 5 days before immunization, average of group (5 mice)
[6] = Treatment Anti CD8, daily for 5 days before immunization, average of group of 5 mice
[7] = Treatment None, average of group (5 mice), ISA 51 adjuvant
[8] = Treatment Normal rat IgG, daily for 5 days before immunization, average of group (5 mice)

Substance | IgG1 ([1]; group Average) | IgG2a ([1]; group Average) | IgG2b ([1]; group Average) | IgG3 ([1]; group Average) | IgG1 ([1]; individual mouse) | IgG2a ([1]; individual mouse) | IgG2b ([1]; individual mouse) | IgG3 ([1]; individual mouse) | ELISA signal on E Clade (E Clade) | ELISA signal on D Clade (D Clade) | ELISA signal on B Clade (B Clade) | ELISA signal on modified HGP-30 (modified HGP-30 [3]) | ELISA signal on C Clade (C Clade) | also measured
DLL KNG ERI EKV EGG GAT LYS VHQ RID VKD TKE ALE KIE EEQ NKS (DGQEEKAGVVSTGLIGGGQYSWFVNGTF) [SEQ ID NO: 59, Peptide J linked by GGG spacer to modified HGP-30 (mH)] | 0.717 | 0.046 | 0.019 | 0.070 | 0.002 and 1.603 and 0.014 and 2.023 and 2.199 and 0.053 and 0.057 and 0.505 and 0.000 | 0.002 (2×) and 0.027 and 0.000 (2×) and 0.299 and 0.060 and 0.014 and 0.011 | 0.002 and 0.014 and 0.000 (5×) and 0.113 and 0.039 | 0.017 and 0.032 and 0.009 and 0.227 and 0.324 and 0.000 (2×) and 0.003 and 0.016 | 2.431 and 1.565 and 0.789 and 0.788 and 0.554 and 0.722 and 0.142 and 1.379 and 2.379 | 0.120 and 0.004 and 0.196 and 0.000 (6×) | 0.262 and 0.000 (6×) and 0.575 and 0.026 | 0.440 and 0.011 and 0.753 and 0.905 and 0.793 and 0.100 and 0.035 and 0.000 (2×) | 2.421 and 1.699 and 1.295 and 0.969 and 0.665 and 0.780 and 0.171 and 1.370 and 2.322 | Left Ear thickness, inoculated day 26 with HGP-30, measured after 48 hours (modified HGP-30 [2]; [4]): 0.254 mm; Right Ear thickness, inoculated day 26 with saline, measured after 48 hours (modified HGP-30 [2]; [4]): 0.231 mm; DTH % increase (L-R)/R (modified HGP-30 [2]; Day 14 Injection Only, average of group of 5 mice): 10.00%; Left Ear thickness, inoculated day 26 with HGP-30, measured after 48 hours (modified HGP-30 [2]; [5]): 0.288 mm; Right Ear thickness, inoculated day 26 with saline, measured after 48 hours (modified HGP-30 [2]; [5]): 0.240 mm; DTH % increase (L-R)/R (modified HGP-30 [2]; Treatment Anti CD4, average of group (5 mice)): 20.00%; Left Ear thickness, inoculated day 26 with HGP-30, measured after 48 hours (modified HGP-30 [2]; [6]): 0.233 mm; Right Ear thickness, inoculated day 26 with saline, measured after 48 hours (modified HGP-30 [2]; [6]): 0.220 mm; DTH % increase (L-R)/R (modified HGP-30 [2]; Treatment Anti CD8, average of group of 5 mice): 6.20%***; DTH % increase (L-R)/R (modified HGP-30 [2]; Treatment None, average of group (5 mice)): 29.30%; Left Ear thickness, inoculated day 26 with HGP-30, measured after 48 hours (modified HGP-30 [2]; [7]): 0.288 mm; Right Ear thickness, inoculated day 26 with saline, measured after 48 hours (modified HGP-30 [2]; [7]): 0.222 mm; Left Ear thickness, inoculated day 26 with HGP-30, measured after 48 hours (modified HGP-30 [2]; [8]): 0.296 mm; Right Ear thickness, inoculated day 26 with saline, measured after 48 hours (modified HGP-30 [2]; [8]): 0.227 mm; DTH % increase (L-R)/R (modified HGP-30 [2]; Treatment Normal rat IgG, average of group (5 mice)): 30.60%; Type of cells required for a DTH response (modified HGP-30 [2]; cell specific antisera as depletion reagent for the primary immunization (FIG. 1)): requires the presence and presumably activation of CD8+ but not CD4+ cells
VQG EES NDK GGG YSV HQR IDV KDT KEA LEK IEE EQN KSK KKA (DLLKNGERIEKVEGGGSTAPPAHGV) [SEQ ID NO: 63, Peptide F linked by GGG spacer to HGP-30] | 0.652 | 0.071 | 0.024 | 0.044 | 0.761 and 0.181 and 0.649 and 0.417 and 0.022 and 1.379 and 0.030 and 0.349 and 0.717 and 2.018 | 0.051 and 0.018 and 0.020 and 0.007 and 0.000 (2×) and 0.048 and 0.026 and 0.192 and 0.350 | 0.003 and 0.001 and 0.007 and 0.005 and 0.006 and 0.028 and 0.047 and 0.000 and 0.027 and 0.117 | 0.040 and 0.006 and 0.104 and 0.173 and 0.009 and 0.013 and 0.007 and 0.000 and 0.058 and 0.028 | 0.000 (7×) and 1.565 and 0.042 and 1.010 | 0.000 (5×) and 0.012 and 0.005 and 1.941 and 0.386 and 0.050 | 0.000 (6×) and 0.282 and 1.977 and 0.667 and 0.011 | 0.065 and 0.216 and 0.128 and 0.000 and 0.110 and 0.017 and 0.201 and 0.623 and 0.747 and 0.013 | 0.000 (5×) and 0.135 and 0.010 and 1.878 and 0.650 and 1.051 | –
